Measured values reported in patent US20120244106A1 (SANOFI-AVENTIS U.S. LLC, priority 2009, published 2012).

Columns and labels:
Format in all cases: in vivo, humans
[1] = tested on: relapsing-remitting multiple sclerosis patients; assay: Brain MRI Gd-enhancing T1-lesions (number and volume), entire 48-week double-blind treatment period, ITT population
Method: (§1) Design/Methods: 96 of the 123 patients that were randomized to study treatment ([…]) for the first 6-months in Example 1 completed this 6-month period and accepted to continue medication for an additional 6-month period (placebo: 37, 7 mg: 30, 14 mg: 29). Of the 96 treated patients, 5 patients prematurely withdrew from the study treatment (placebo: 3, 7 mg: 0, and 14 mg: 2). Safety was evaluated from TEAE, physical exam (every 6 weeks), laboratory data (every 6 weeks), vital signs (every 6 weeks), ECG (at the close-out visit), pancreatic ultrasound (at the close-out visit) and brain MRI (at the close-out visit). Relapses were recorded and EDSS was performed every 6-weeks. Annualized relapse rates (ARR) were analyzed by a Poisson model with the total number of confirmed relapses onset between randomization date and last dose date as the response variable, treatment and region as covariates, and log-transformed standardized study duration as an offset variable. The following results report the entire 48-week double-blind treatment period.
One patient (14 mg group) had one day participation in the study and had no valid baseline MRI data. Two other patients, one in 7 mg and one in 14 mg, prematurely discontinued the study and no post baseline MRI was collected.

[2] = tested on: relapsing-remitting multiple sclerosis patients; assay: Safety and tolerability (TEAE, laboratory data), 48-week treatment period; conditions: 48 weeks
Method: as §1

[3] = tested on: relapsing-remitting multiple sclerosis patients; assay: Brain MRI Gd-enhancing T1-lesions (number and volume), 24-week placebo-controlled add-on study, ITT population; conditions: 24 weeks
Method: (§2) A placebo-controlled, double-blinded, randomized study was conducted in relapsing-remitting multiple sclerosis patients who were concurrently on a stable dose of glatiramer acetate. The dose of glatiramer acetate was 20 mg subcutaneously daily.
(§3) Around 40 patients were treated in each treatment group (placebo: 41, 7 mg: 42, and 14 mg: 40). […] The mean age of the study population was 41.4 years. […] The base line Expanded Disability Status Scale (EDSS) score was similar between treatment groups (around 2.5). A few more patients had Magnetic Resonance Image (MRI) disease activity (at least one T1-Gd lesion) at baseline in 7 mg group (28.6%) than in placebo (14.6%) and 14 mg (12.8%) groups.
(§4) Safety was evaluated with reported Treatment Emergent Adverse Events (TEAE), physical examination (every 8-weeks), laboratory data (e.g. Liver Function Test, every 2 weeks), vital signs (every 8-weeks), ECG and abdominal ultrasound (at baseline and at 24-weeks). Brain MRI activity, including T1-gadolinium (T1-Gd) lesions with central reading was recorded every 8-weeks, EDSS scores were recorded at baseline and at 24-weeks, Fatigue impact scale was assessed every 8-weeks, and relapses were assessed at every clinical visit.

[4] = tested on: relapsing-remitting multiple sclerosis patients; assay: Confirmed MS relapses / annualized relapse rate, 24-week study, ITT population; conditions: 24 weeks
Method: as §2, §3, §4
Twenty-nine patients experienced a total of 30 confirmed relapses. Two relapses occurred after treatment discontinuation (1 day in one placebo patient, 41 days in one 7 mg patient). Therefore, 28 confirmed relapses occurring in 27 patients were included in the analysis (Table 3).

[5] = tested on: relapsing-remitting multiple sclerosis patients; assay: Confirmed MS relapses / annualized relapse rate, 48-week treatment period, ITT population; conditions: 48 weeks
Method: Safety was evaluated from TEAE, physical exam (every 6 weeks), laboratory data (every 6 weeks), vital signs (every 6 weeks), ECG (at the close-out visit), pancreatic ultrasound (at the close-out visit) and brain MRI (at the close-out visit). Relapses were recorded and EDSS was performed every 6-weeks.

[6] = tested on: relapsing-remitting multiple sclerosis patients; assay: Safety and tolerability (TEAE, laboratory data), 24-week study; conditions: 24 weeks
Method: as §2
Around 40 patients were treated in each treatment group (placebo: 41, 7 mg: 42, and 14 mg: 40).
as §4

[7] = 7 mg teriflunomide + GA 20 mg sc daily, 48 weeks
[8] = 7 mg teriflunomide + GA 20 mg sc daily
[9] = 14 mg teriflunomide + GA 20 mg sc daily (group not given)
[10] = 14 mg teriflunomide + GA 20 mg sc daily
[11] = the two teriflunomide groups (7 mg, 14 mg) + GA vs placebo + GA
[12] = 7 mg or 14 mg teriflunomide + GA

C/C(O)=C(\C#N)C(=O)Nc1ccc(C(F)(F)F)cc1 [teriflunomide, (Z)-2-cyano-3-hydroxy-but-2-enoic acid-(4′-trifluoromethylphenyl)-amide]
Patients with >=1 Gd-enhancing T1-lesions post-baseline: No (% of patients) [1, 7]: 56.1% | Unadjusted Gd-enhancing T1-lesions per scan [1, 7]: 0.317 | Unadjusted Gd-enhancing T1-lesions per scan ([1]; 14 mg teriflunomide + GA 20 mg sc daily, 48 weeks): 0.233 | Controlling disease activity as measured by T1-Gd lesions ([1]; teriflunomide added to GA, one-year study): trend to benefit | Number of patients experiencing a serious TEAE [2, 8]: 5 | Number of patients with TEAE leading to treatment discontinuation [2, 8]: 3 | Patients experiencing a serious TEAE (%) [2, 8]: 11.9% | Patients who experienced a TEAE related to hypertension (number) [2, 8]: 2 | Patients with ALT greater than 3×ULN [2, 8]: 0 | Patients with TEAE leading to treatment discontinuation (%) [2, 8]: 7.1% | Proportion of patients experiencing a TEAE related to hypersensitivity [2, 8]: 14.3% | Proportion of patients with a TEAE potentially related to immunosuppression (all infections and hematological disorders) [2, 8]: 52.4% | Proportion of patients with a TEAE related to hepatic disorder [2, 8]: 9.5% | TEAE incidence rate [2, 8]: 95.2% | Number of patients experiencing a serious TEAE [2, 9]: 2 | Patients experiencing a serious TEAE (%) [2, 9]: 4.9% | Number of patients with TEAE leading to treatment discontinuation [2, 10]: 5 | Patients who experienced a TEAE related to hypertension (number) [2, 10]: 2 | Patients with ALT greater than 3×ULN [2, 10]: 1 | Patients with TEAE leading to treatment discontinuation (%) [2, 10]: 12.2% | Proportion of patients experiencing a TEAE related to hypersensitivity [2, 10]: 24.4% | Proportion of patients with a TEAE potentially related to immunosuppression (all infections and hematological disorders) [2, 10]: 51.2% | Proportion of patients with a TEAE related to hepatic disorder [2, 10]: 12.2% | TEAE incidence rate [2, 10]: 92.7% | Tolerability and safety ([2]; each dose of teriflunomide (7 mg, 14 mg) combined with GA): acceptable and manageable | Proportions of patients with occurrence of decreased WBC and neutrophil counts (PCSA) [2, 11]: slightly higher | Patients with >=1 Gd-enhancing T1-lesions post-baseline: No (% of patients) [3, 8]: 61.0% | Unadjusted Gd-enhancing T1-lesions per scan [3, 8]: 0.321 | Unadjusted Gd-enhancing T1-lesions per scan [3, 10]: 0.262 | Disease control as evaluated by T1-Gd MRI activity ([3]; teriflunomide added to stable-dosed GA): improved disease control beyond glatiramer acetate alone | Adjusted annualized relapse rate, estimate (Poisson model) [4, 8]: 0.311 | Total number of relapses [4, 8]: 6 | Unadjusted annualized relapses rate [4, 8]: 0.337 per patient year | Adjusted annualized relapse rate, estimate (Poisson model) [4, 10]: 0.647 | Total number of relapses [4, 10]: 12 | Unadjusted annualized relapses rate [4, 10]: 0.710 per patient year | Adjusted annualized relapse rate, estimate (Poisson model) [5, 8]: 0.262 | Number of patients with >=1 relapses: Yes (number of patients) [5, 8]: 8 | Unadjusted annualized relapses rate [5, 8]: 0.281 per patient year | Adjusted annualized relapse rate, estimate (Poisson model) [5, 10]: 0.497 | Number of patients with >=1 relapses: Yes (number of patients) [5, 10]: 15 | Unadjusted annualized relapses rate [5, 10]: 0.546 per patient year | Concurrent increase in ALT>3ULN and in total bilirubin>2ULN [6, 12]: No case | Deaths [6, 12]: No patients died | Number of patients with TEAE leading to treatment discontinuation [6, 8]: 3 | Patients with ALT greater than 3ULN [6, 8]: 0 | Patients with TEAE leading to treatment discontinuation (%) [6, 8]: 7.1% | Proportion of patients with TEAE potentially related to immunosuppression [6, 8]: 43% | Proportion of patients with a TEAE related to hepatic disorder [6, 8]: 9.5% | TEAE incidence rate [6, 8]: 83.3% | Number of patients with TEAE leading to treatment discontinuation [6, 10]: 4 | Patients with ALT greater than 3ULN [6, 10]: 1 | Patients with TEAE leading to treatment discontinuation (%) [6, 10]: 10% | Proportion of patients with TEAE potentially related to immunosuppression [6, 10]: 38% | Proportion of patients with a TEAE related to hepatic disorder [6, 10]: 12.2% | TEAE incidence rate [6, 10]: 87.5% | Tolerability and safety ([6]; each teriflunomide dose (7 mg, 14 mg) combined with GA): acceptable | Proportion of patients with occurrence of decreased WBC count and neutrophils (PCSA) [6, 11]: slightly higher
